Tested on: Pα-syn* aggregates in PFF-seeded primary hippocampal neurons
Test: Autophagy modulation assay: Pα-syn* aggregates in PFF-seeded primary hippocampal neurons
Assay type: cell-based, mouse
Details: treated from day 3.5 to day 6 post-PFF exposure, rapamycin 300 nM, chloroquine 1 μM, 3-Methyladenine 1 mM, 200 cells counted blinded, versus vehicle
Procedure: Primary neuronal cultures and PFFs seeding: Primary neuronal cultures were prepared from E16-E18 C57BL/6 mouse brains (Charles River Laboratories) using standard procedures. For immunofluorescence experiments, dissociated hippocampal neurons were plated onto poly-L-lysine coated glass coverslips placed in 24-well plates, at a cell density of 125,000 cells/well. For biochemical assays, dissociated cortical neurons were plated onto poly-L-lysine-coated 6-well plates at a cell density of 1,000,000 cells/well. Neuronal cultures were seeded with PFFs at 5-6 days in vitro (DIV). […] Just before seeding, PFFs were diluted in PBS at 0.1 mg/ml, sonicated during 30 sec (0.5 sec ON, 0.5 sec OFF, power 30%), and diluted in neuronal media. Two μg/ml PFFs (final) per well were added on 24-well plates for immunofluorescence experiments, and 4 μg/ml PFFs (final) per well were added to 6-well plates for biochemical assays. In the case of control conditions, an equivalent volume of PBS was added to the neuronal cultures. Autophagy modulation assays: Dissociated hippocampal neurons were plated onto poly-L-lysine coated glass coverslips placed in 24-well plates, at a cell density of 125,000 cells/well and seeded with PFFs (or equivalent volume of PBS for the control) at 5-6 DIV. […] Thereafter, neuronal cultures were grown for an extra 2.5 days until a total of 6 days after PFF seeding, were fixed and processed for immunofluorescence. In order to assess the effect of autophagy modulation on Pα-syn* generation, a total of 200 cells per treatment were evaluated and the number of Pα-syn* aggregates per cells was counted in a blinded fashion at 100× magnification. Immunofluorescence experiments: Neurons were fixed for 30 min at room temperature with 4% (w/v) paraformaldehyde in PBS containing 4% (w/v) sucrose. Neurons were washed with PBS, permeabilized with 0.2% (v/v) Triton X-100 in PBS for 6 min, washed again in PBS and blocked for 1 hour at room temperature. […]

CCN(CC)CCCC(C)Nc1ccnc2cc(Cl)ccc12 (stereo not drawn) [chloroquine]
number of Pα-syn* aggregates per cell: fewer

Cn1cnc(N)c2ncnc1-2 [3-Methyladenine]
number of Pα-syn* aggregates per cell: decrease
number of Pα-syn* aggregates per cell (listed as 3-MA): fewer
